Data reported in US20170095504A1, “Inhibitors of Kidney Stone Formation and Calcium Deposition” (priority 2015, published 2017).

Assays:
[1] = Effect of inhibitors on crystal morphology (COM/COD/COT); settings: 100 mg/L; 1 hr after start of reaction; control yields COM
[2] = Calcium binding (free Ca in solution before oxalate addition); assay type: physicochemical; settings: inhibitor 100 mg/L; ~1.0 mM if no Ca binding occurs; control 1.02 mM
Experimental: Calcium binding was determined before oxalate addition. Crystals were obtained after the end of the kinetic experiments (1 hour), filtered, dried and tested by FTIR. The major polymorph was reported; other phases may be present but their peaks were not distinguishable in IR. Initial calcium and oxalate concentrations was the same, approximately 1 mM in pH buffered medium containing 10 mM HEPES and 150 mM NaCl. […] The data are Ca recordings obtained from solutions containing the inhibitor (100 mg/L) and calcium. The Ca ion concentration should be ˜1.0 mM if no Ca binding occurs. This could be related to the type of adsorption on the crystals as reported in a later section. Some of our proposed KSIs are showing significant Ca binding activity, and these are likely to be the best candidates as inhibitors.

- Ca2+ concentration in the presence of inhibitors at 100 mg/L (PPM) [2]: 0.71 mM
Compound: O=C(O)CN(CCN(CC(=O)O)CC(=O)O)CCN(CC(=O)O)CC(=O)O [DTPA, diethylenetriaminepentaacetic acid]
- crystal phase obtained (COM, COD or COT) [1]: COT
